According to US20150239831A1, “INHIBITORS OF CENTRAL NERVOUS SYSTEM VASOACTIVE INHIBITORY PEPTIDE RECEPTOR 2” (The Trustees Of Columbia University In The City Of New York, priority 2012, published 2015):

Experiments:
Assay type in all cases: cell-based
Set-up in all cases: expressed in transfected cells; host or cells: HEK293 cells transfected with VIPR2 in pCDNA3.1 (as described)
VIPR2 [1] = target: T1, VIPR2 (Homo sapiens, UniProt P41587); assay: Inhibition of VIP-induced β-arrestin recruitment (% Activity Arrestin)
T1 sequence (P41587 24-438): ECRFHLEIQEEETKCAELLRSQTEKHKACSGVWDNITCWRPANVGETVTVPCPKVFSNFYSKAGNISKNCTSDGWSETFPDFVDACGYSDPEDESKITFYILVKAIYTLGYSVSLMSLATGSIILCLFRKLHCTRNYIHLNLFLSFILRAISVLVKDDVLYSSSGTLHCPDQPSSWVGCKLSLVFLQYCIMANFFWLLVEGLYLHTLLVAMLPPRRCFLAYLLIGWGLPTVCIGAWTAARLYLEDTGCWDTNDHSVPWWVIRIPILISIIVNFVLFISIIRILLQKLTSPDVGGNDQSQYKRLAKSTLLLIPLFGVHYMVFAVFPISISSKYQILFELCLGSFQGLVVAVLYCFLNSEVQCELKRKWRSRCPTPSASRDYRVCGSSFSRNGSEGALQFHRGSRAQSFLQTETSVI
Method in brief: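 HEK293 cells stably expressing β-arrestin2–β-gal EA, transiently transfected with ProLink-tagged hVIPR2, plated overnight; inhibitor added for 2 h at 37 °C, 5% CO2. Receptor–arrestin complementation read by chemiluminescence after 5 min–1 h at room temperature; inhibition of VIP-induced recruitment reported as % activity.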

VIPR2 [2] = target: T1, VIPR2; assay: Inhibition of VIP-induced cAMP elevation (% Activity cAMP)
Method in brief: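 HEK293 cells stably transfected with human VIPR2 were incubated with inhibitor and VIP for 30 min, then cAMP was detected by HTRF after at least 1 h at room temperature. The 665/620 nm ratio ×10,000 was calculated.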

VIPR2 [3] = target: T1, VIPR2; assay: % Activity: inhibition of VIP-induced cAMP elevation and β-arrestin recruitment (Table 2)
Method in brief: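 cAMP: HEK293 stably expressing hVIPR2, inhibitor plus VIP 30 min, cAMP by HTRF (665/620 nm ratio ×10,000). β-arrestin: HEK293 with β-arrestin2-β-gal-EA, transiently transfected with VIPR2-ProLink; inhibitor 2 h at 37° C, enzyme complementation read by luminescence.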

SMILES | inhibition at 0.5 µM (VIPR2 [1]; Batch 2) | inhibition at 1 µM (VIPR2 [1]; Batch 2) | inhibition at 5 µM (VIPR2 [1]; Batch 2) | inhibition at 0.5 µM (VIPR2 [2]; Batch 2) | inhibition at 1 µM (VIPR2 [2]; Batch 2) | inhibition at 5 µM (VIPR2 [2]; Batch 2) | % Activity (VIPR2 [3]) | inhibition at 0.5 µM (VIPR2 [1]; Batch 3) | inhibition at 1 µM (VIPR2 [1]; Batch 3) | inhibition at 5 µM (VIPR2 [1]; Batch 3) | inhibition at 0.5 µM (VIPR2 [2]; Batch 3) | inhibition at 1 µM (VIPR2 [2]; Batch 3) | inhibition at 5 µM (VIPR2 [2]; Batch 3)
O=C(NCc1ccc(F)cc1F)[C@H](Cc1ccccc1)C[C@H](O)CNS(=O)(=O)c1ccc([N+](=O)[O-])cc1 [Compound B14A] | -19.5% | -13.3% | 30.8% | 2.4% | 7.2% | 23.6% | 27.2000% | – | – | – | – | – | –
O=C(NCc1ccc(F)cc1F)[C@@H](Cc1ccccc1)C[C@H](O)CNS(=O)(=O)c1ccc([N+](=O)[O-])cc1 [Compound B14B] | 23.9% | 20% | 24% | -5.4% | 4.7% | 18.2% | 21.1000% | – | – | – | – | – | –
CCN(CC)C(=O)[C@H](Cc1ccccc1)C[C@H](O)CNS(=O)(=O)c1ccc([N+](=O)[O-])cc1 [Compound B15A] | -5.4% | 7.9% | 5.7% | -8.1% | -6.1% | -4.3% | 0.7% | – | – | – | – | – | –
CCN(CC)C(=O)[C@@H](Cc1ccccc1)C[C@H](O)CNS(=O)(=O)c1ccc([N+](=O)[O-])cc1 [Compound B15B] | -3.6% | 1.2% | -2.7% | 0.5% | -8.4% | -10.5% | −6.6% | – | – | – | – | – | –
CCNC(=O)[C@H](Cc1ccccc1)C[C@H](O)CNS(=O)(=O)c1ccc([N+](=O)[O-])cc1 [Compound B16A] | 15.2% | 0.1% | -12.3% | -7.1% | -0.4% | -6.2% | −9.25% | – | – | – | – | – | –
CCNC(=O)[C@@H](Cc1ccccc1)C[C@H](O)CNS(=O)(=O)c1ccc([N+](=O)[O-])cc1 [Compound B16B] | -10% | 6% | -7.6% | -13.2% | -0.9% | -22.2% | −14.9% | – | – | – | – | – | –
O=C([C@H](Cc1ccccc1)C[C@H](O)CNS(=O)(=O)c1ccc([N+](=O)[O-])cc1)N1CCCCC1 [Compound B18A] | -10.2% | -11.5% | -2.8% | -4.8% | -4.8% | 0.5% | −1.15% | – | – | – | – | – | –
O=C([C@@H](Cc1ccccc1)C[C@H](O)CNS(=O)(=O)c1ccc([N+](=O)[O-])cc1)N1CCCCC1 [Compound B18B] | 0.5% | 9.2% | 14.9% | 14.2% | 14.2% | 9.4% | 12.15% | – | – | – | – | – | –
O=C([C@H](Cc1ccccc1)C[C@H](O)CNS(=O)(=O)c1ccc([N+](=O)[O-])cc1)N1CCC(CO)CC1 [Compound B19] | -8.4% | -17.8% | -4.5% | 2.1% | 4.4% | 6.2% | 0.85% | – | – | – | – | – | –
CNC(=O)[C@H](Cc1ccccc1)C[C@H](O)CNS(=O)(=O)c1ccc([N+](=O)[O-])cc1 [Compound B20] | 6.9% | 4% | 3.2% | 7% | 8.3% | 9.3% | 6.25% | – | – | – | – | – | –
C#CCNC(=O)[C@H](Cc1ccccc1)C[C@H](O)CNS(=O)(=O)c1ccc([N+](=O)[O-])cc1 [Compound B21A] | 9.4% | 7.2% | -0.2% | 5.4% | 7.8% | 7.3% | 3.55% | – | – | – | – | – | –
C#CCNC(=O)[C@@H](Cc1ccccc1)C[C@H](O)CNS(=O)(=O)c1ccc([N+](=O)[O-])cc1 [Compound B21B] | 3.3% | 3.4% | 7% | 3.1% | 7.3% | 13.5% | 10.25% | – | – | – | – | – | –
Nc1ccc(S(=O)(=O)NC[C@@H](O)C[C@@H](Cc2ccccc2)C(=O)N[C@H]2c3ccccc3C[C@H]2O)cc1 [Compound X081] | – | – | – | – | – | – | 20% | -5.6% | -5.5% | 6.7% | 8.4% | 18.6% | 33.3%
CNc1ccc(S(=O)(=O)NC[C@@H](O)C[C@@H](Cc2ccccc2)C(=O)N[C@H]2c3ccccc3C[C@H]2O)cc1 [Compound X082] | – | – | – | – | – | – | −1.5% | -0.8% | 1.1% | 4.3% | -0.9% | 2% | -7.3%
CN(C)c1ccc(S(=O)(=O)NC[C@@H](O)C[C@@H](Cc2ccccc2)C(=O)N[C@H]2c3ccccc3C[C@H]2O)cc1 [Compound X083] | – | – | – | – | – | – | 2.65% | 4.2% | -1.6% | 8.7% | 9.4% | -1.4% | -3.4%
CCCNc1ccc(S(=O)(=O)NC[C@@H](O)C[C@@H](Cc2ccccc2)C(=O)N[C@H]2c3ccccc3C[C@H]2O)cc1 [Compound X084] | – | – | – | – | – | – | 15.6% | 4.1% | 2.6% | 6.7% | -2.9% | 11.3% | 24.5%
CC(C)Nc1ccc(S(=O)(=O)NC[C@@H](O)C[C@@H](Cc2ccccc2)C(=O)N[C@H]2c3ccccc3C[C@H]2O)cc1 [Compound X085] | – | – | – | – | – | – | 16.2% | 8.1% | -2% | 11.8% | 17.2% | 18.2% | 20.6%
CC(C)CNc1ccc(S(=O)(=O)NC[C@@H](O)C[C@@H](Cc2ccccc2)C(=O)N[C@H]2c3ccccc3C[C@H]2O)cc1 [Compound X086] | – | – | – | – | – | – | 19.65% | 10.2% | 5.2% | 11.9% | 21.6% | 16.7% | 27.4%
CCCCCNc1ccc(S(=O)(=O)NC[C@@H](O)C[C@@H](Cc2ccccc2)C(=O)N[C@H]2c3ccccc3C[C@H]2O)cc1 [Compound X087] | – | – | – | – | – | – | 15.2% | 2.8% | 2.3% | 11.3% | 10.8% | 19.1% | 19.1%
CC(=O)Nc1ccc(S(=O)(=O)NC[C@@H](O)C[C@@H](Cc2ccccc2)C(=O)N[C@H]2c3ccccc3C[C@H]2O)cc1 [Compound X088] | – | – | – | – | – | – | 11.65% | -1.2% | 4.9% | 4.2% | 15.2% | 19.1% | 19.1%
CC(=O)Nc1ccc(S(=O)(=O)NC[C@H](C[C@@H](Cc2ccccc2)C(=O)N[C@H]2c3ccccc3C[C@H]2O)OC(C)=O)cc1 [Compound X089] | – | – | – | – | – | – | 6.75% | -9.8% | -1.8% | 10.5% | -4.3% | 32.3% | 3%
CC(=O)Nc1ccc(S(=O)(=O)NC[C@H](C[C@@H](Cc2ccccc2)C(=O)N[C@H]2c3ccccc3C[C@H]2OC(C)=O)OC(C)=O)cc1 [Compound X090] | – | – | – | – | – | – | 1.95% | 0.5% | 0.2% | 9.7% | -8.7% | -8.7% | -5.8%
CCC(=O)Nc1ccc(S(=O)(=O)NC[C@@H](O)C[C@@H](Cc2ccccc2)C(=O)N[C@H]2c3ccccc3C[C@H]2O)cc1 [Compound X091] | – | – | – | – | – | – | 8.25% | -3.4% | -1.2% | -10.4% | 0.6% | 1.5% | 26.9%
